In patent US20140335532A1, “HUMAN SKIN SAMPLE METHODS AND MODELS FOR VALIDATING HYPOTHESES FOR MECHANISMS DRIVING SKIN PIGMENTATION” (The Procter & Gamble Company, priority 2011, published 2014):

Columns and labels:
9 epidermal tone genes [1] = experiment: Endogenously driven ex-vivo human skin tissue, transcription of epidermal tone genes vs untreated control; type: cell-based; details: for # Genes (out of 9) with p ≦ 0.1: endogenously driven tissue sample, 37° C. and 70% humidity, epidermal genes regulated vs untreated control, 2-10 experiments each
Method: Referring to FIGS. 11 to 15, examples are shown for the regulation of the 9 epidermal tone genes against an untreated control in an endogenously driven ex-vivo tissue system at 37° C. and 70% humidity for niacinamide, hexamidine, N-Acetyl glucosamine, kojic acid, tranexamic acid, and undecylenoyl phenylalanine (2-10 experiments each). […] For instance, out of the 9 epidermal genes, at least one compound (Hexamidine) regulated 9 genes (with a statistical significance of p<0.1 or better) while two compounds regulated 5 or fewer genes (with a p<0.1 or better). Table 1 below summarizes the number of epidermal genes regulated by certain materials in an endogenously driven tissue sample with a statistical significance of p≦0.1.
Culturing involved setting up culture plates: putting 2.5 ml of media or treatment into each well of a 6-well tissue plate, adding one Millicell culture insert to each well, and putting 100 μl of 1×DMEM on the center of each insert membrane. Squares were selected randomly placed into each of the inserts (one piece of skin per insert), on top of the media on the membrane. The plates were stored at either 33° C. (though an additional non-limiting example would be 37° C. depending on the experiment endpoint). As a control, baseline tissue measurements were collected from excess waste (cryogenics were used for snap freezing). Baseline biopsy collection involved two 4 mm punches for MTT; One 4 mm punch was snap frozen in OCT for fresh histology; One 4 mm punch was fixed in 10% formalin and sent out for paraffin embedding. PCR baseline was also be taken with six 4 mm punches snap frozen in liquid nitrogen.
Culture and treatment of the model comprised replicates of n=5 (though replicates of additional quantities may be used such as n=6). Media Dosing of skin involved solubilizing used in appropriate solvents (including PBS, Media, alcohol, and DMSO; in using DMSO, the final concentration in the plate was restricted to 0.01%). Appropriate dilutions were made for treatment: 15 ml of media were required per plate per day for treatment, with 2.5 ml of media required per well under the cell culture insert. Media was pre-warmed and changed every day during the experiment.
Skin was topically dosed. To do so, formulation for a compound of interest was obtained. Variation was minimized by having a vehicle that was as close to test formula as possible (making sure glycerin concentration was the same, determining if there was a vitamin package in the formula, determining if there was niacimamide; all of these were the same between the vehicle control formula and the test formula) (in ideal embodiments, the only difference is the unknown test compound). The skin was treated using a positive displacement pipette with 20 ul of formulation. A sterile cotton swab was used after application to spread and rub in the formula. Media was changed every day. The media was aspirated and replaced with fresh warmed media at a level of 2.5 ml per well.
For cryopreparation and extraction the following equipment was obtained and prepared: 2 ml round bottom tubes were prepared with 1 ml of TRIZOL as was a 5 mm stainless steel bead for each sample; a dry ice bucket was obtained and liquid nitrogen was placed in the bucket. Biopsy punches were maintained on dry ice, and samples remained frozen. Cryobags and covaris cryoprep were used in freeze fracturing of samples. To freeze fracture the samples, biopsies were placed in a cryo bag (2 per sample) and dipped in liquid nitrogen, then placed in cryoprep (setting 4). The sample bag was taken out and dipped back into nitrogen. A flattened disk was removed and placed into corresponding 2 ml tubes with TRIZOL. The disk was kept frozen in the TRIZOL. The tube was closed and snap frozen, and the whole tube was placed in liquid nitrogen. After repeating the process with all the samples, samples were placed into boxes and stored at −80 until the next step. […]

9 epidermal tone genes [2] = experiment: Stem Cell Factor/Endothelin 1 driven ex-vivo human skin tissue, transcription of epidermal tone genes vs untreated control; type: cell-based; details: Stem Cell Factor/Endothelin 1 driven tissue sample; 37° C. and 70% humidity; out of 9 epidermal genes; 2-10 experiments each
Method: Referring to FIGS. 19 to 23, examples (of 2-10 experiments each) are shown for the regulation of the 9 epidermal tone genes against an untreated control in ex-vivo tissue driven by the combination of Stem Cell Factor and Endothelin at 37° C. and 70% humidity for niacinamide, hexamidine, N-Acetyl glucosamine, kojic acid, tranexamic acid, and undecylenoyl phenylalanine. […] For instance, out of the 9 epidermal genes, at least one compound (undecylenoyl phenylalanine) regulated 5 genes (with a statistical significance of p<0.1 or better) while two compounds regulated 2 or fewer genes (with a p<0.1 or better). Table 2 below summarizes the number of epidermal genes regulated by certain materials in a Stem Cell Factor/Endothelin 1 driven tissue sample with a statistical significance of p≦0.1.
In example embodiments, tone is driven by application of stem cell factor and/or endothelin (with skin preparation, culturing, and mRNA processing being completed as previously described). In an example embodiment, skin samples are placed within 6-well plates, with 2.5 ml of media per well. A concentration of eighty nanograms per milliliter of stem cell factor as well as eighty nanograms per milliliter of endothelin was applied to tissue in the wells, with the media being refreshed daily. The culture was maintained for seven days. Inhibitors of tone-related genes were applied; hexamidine and undecylenoyl phenylalanine were applied topically and daily in vehicles at 0.1% and 0.25%, respectively.

tone genes = experiment: Human Ex-vivo Pre-Clinical Model, fold regulation of tone genes by clinical formulations; type: cell-based; details: FIGS. 25a and 25b
Method: FIGS. 25a and 25b show two respective tables showing ex-vivo model fold regulation changes indicating significant down-regulation by clinical formulations in the Human Ex-vivo Pre-Clinical Model.
(§1) The ex-vivo screening method has provided identification of agents consistent with in-vitro studies and which have proven positive clinically. One such example is hexyldecanol. […] For example, total melanin assays were performed using a rat melanoma line known to produce melanin. […] Therefore, promising tone agents such as hexyldecanol identified from the in-vitro model and the ex-vivo model have been tested in clinical settings.

[3] = test system: facial skin pigmentation (spots, melanin evenness); experiment: 9-week clinical study, randomized, double-blind, vehicle-controlled, split-face; type: in vivo, human; details: 9-week study
Text: For example, hexyldecanol was compared to vehicle controls and positive controls (5% Niacinamide+1% undecylenoyl phenylalanine) through a 9-week period. Specifically the trial included a 9-week clinical study with a randomized, double-blind, round robin, vehicle-controlled, split-face design, including one week normalization period whereby 330 subjects received test product.

[4] = test system: rat melanoma line known to produce melanin; experiment: Total melanin assay in melanoma cell line; type: cell-based; details: rat melanoma cell cultures
Method: as §1

tone genes of interest = experiment: Ex-vivo tissue culture exposed to compounds known to stimulate the pigmentation pathway, tone gene regulation; type: cell-based, human; details: p≦0.1, minimum of 2-10 experiments each, FIG. 16

Compound | # Genes (out of 9) with p ≦ 0.1 (9 epidermal tone genes [1]) | # of Genes with p ≦ 0.1 (9 epidermal tone genes [2]) | further results
N=C(N)c1ccc(OCCCCCCOc2ccc(C(=N)N)cc2)cc1 [Hexamidine, hexamidine] | 9 | 4 | 
CCCCCCCCC(CO)CCCCCC (centres unmarked) [Hexyldecanol, hexyldecanol] |  |  | Ex-vivo model gene regulation (tone genes): down-regulation; Overall clinical outcome vs vehicle ([3]; 330 subjects, significant if p<0.10 (1-sided) vs. vehicle): statistically better than vehicle controls; Melanin evenness ([3]; versus the vehicle control): significantly different from controls; Spot area fraction (total area of spots per face) ([3]; versus vehicle control group): significantly different from controls; Total melanin produced as compared to controls [4]: decreased
O=c1cc(CO)occ1O [Kojic Acid, kojic acid] | 5 | 2 | 
CC(=O)N[C@H]1C(O)O[C@H](CO)[C@@H](O)[C@@H]1O (some centres unmarked) [NAG, N-Acetyl glucosamine] | 6 | 1 | 
NC(=O)c1cccnc1 [Niacinamide, niacinamide] | 7 | 3 | Down-regulation of tone genes by donor Fitzpatrick type (9 epidermal tone genes [1]; 5% niacinamide, Fitzpatrick V donor vs two Fitzpatrick III donors, FIG. 1): more challenging to down-regulate
C=CCCCCCCCCC(=O)N[C@@H](Cc1ccccc1)C(=O)O [Undecylenoyl phenylalanine, undecylenoyl phenylalanine] | 3 | 5 | 
Stem Cell Factor: compound known to stimulate the pigmentation pathway; paracrine agent |  |  | Regulation of tone genes of interest (tone genes of interest): up regulate one or more tone genes of interest
tranexamic acid | 7 | 3 | 
α-MSH |  |  | Regulation of tone genes of interest (tone genes of interest): up regulate one or more tone genes of interest
